Where two headings read alike, the source gives them in different places.
System: male db/db mice
Test: Blood glucose, triglyceride and non-esterified fatty acid reduction in db/db mice
Format: in vivo
Conditions: Mus musculus, 216 h, oral once a day, day 9 after administration
Experimental: A chemical suspended in 0.5% methyl cellulose was orally administered via a sonde into male db/db mice (Nippon Charles River, Yokohama, JP) once a day (0.3 to 30 mg/kg/day). Before treatment and after 4 and 9 days treatment, blood was collected through a tail vein after the mice were fasted for 1 hour, respectively. On Day 10, an oral glucose loading test was conducted; in this test, the mice were fasted overnight from the previous day, and in the next morning, 2 g/kg glucose was given to the mice. Plasma glucose, triglycerides (TG), non-esterified fatty acid (NEFA) were measured by using commercial kits, that is, Glucose C-II Test Wako (trade name) (Wako Pure Chemical Industries, Ltd., Tokyo), Determiner L TG II (trade name) (Kyowa Medex, Tokyo) and NEFA C-Test Wako (Wako Pure Chemical Industries, Ltd., Tokyo), respectively.
The determined blood glucose reduction, blood triglyceride reduction and blood non-esterified fatty acid reduction at day 9 after administration are shown in Table 1.

[1] = read-out: Blood free fatty acid reduction (%)
[2] = read-out: Blood sugar reduction (%)
[3] = read-out: Blood triglyceride reduction (%)

CC(C)O[C@@H](Cc1cccc(OC[C@H](F)COc2ccc(Cl)cc2C#N)c1)C(=O)O [Example 329, 3-{3-[3-(4-Chloro-2-cyanophenoxy)-2(S)-fluoropropoxy]phenyl}-2(S)-isopropoxypropanoic acid]
inhibition in vivo at 3 mg/kg [1]: 47.5% | inhibition in vivo at 3 mg/kg [2]: 37.7% | inhibition in vivo at 3 mg/kg [3]: 36.8%

C/C(=N\OCc1ccc(C(F)(F)F)cc1)c1cccc(CC(OC(C)C)C(=O)O)c1 (stereo not drawn) [Ex 132, 2-Isopropoxy-3-[3-([4-(trifluoromethyl)benzyl]-oxyethaneimidoyl)phenyl]propanoic acid]
inhibition in vivo at 6 mg/kg [1]: 72.5% | inhibition in vivo at 6 mg/kg [2]: 50.4% | inhibition in vivo at 6 mg/kg [3]: 75.5%

CC(C)O[C@@H](Cc1cccc(OC[C@@H](F)COc2ccc(Cl)cc2Cl)c1)C(=O)O [Example 320, 3-{3-[3-(2,4-Dichlorophenoxy)-2 (R)-fluoropropoxy]phenyl}-2(S)-isopropoxypropanoic acid]
inhibition in vivo at 3 mg/kg [1]: 35.4% | inhibition in vivo at 3 mg/kg [2]: 56.3% | inhibition in vivo at 3 mg/kg [3]: 80.3%

CC(C)OC(Cc1cccc(C#C[C@]2(O)CC[C@@H](C(C)(C)C)CC2)c1)C(=O)O (stereo partly drawn) [Ex 113, trans-3-(3-2-[4-t-Butyl-1-hydroxycyclohexyl]-1-ethynylphenyl)-2-isopropoxypropanoic acid]
inhibition in vivo at 6 mg/kg [1]: 39.5% | inhibition in vivo at 6 mg/kg [2]: 70% | inhibition in vivo at 6 mg/kg [3]: 81.8%

CC(C)O[C@@H](Cc1cccc(OC[C@H](O)COc2ccc(Cl)cc2)c1)C(=O)O [Example 282, 3-(3-{2(R)-Hydroxy-3-[4-chlorophenoxy]propoxy}phenyl)-2(S)-isopropoxypropanoic acid]
inhibition in vivo at 3 mg/kg [1]: 18.4% | inhibition in vivo at 3 mg/kg [2]: 17.9% | inhibition in vivo at 3 mg/kg [3]: 59.7%

CC(C)O[C@@H](Cc1cccc(CNC(=O)OCc2ccc(OC(F)(F)F)cc2)c1)C(=O)O [Ex 335, 2 (S)-Isopropoxy-3-{3-[(4-trifluoromethoxybenzyloxycarbonylamino)methyl]phenyl}-propanoic acid]
inhibition in vivo at 3 mg/kg [1]: 40% | inhibition in vivo at 3 mg/kg [2]: 57.2% | inhibition in vivo at 3 mg/kg [3]: 81.4%

CC(C)OC(Cc1cccc(OCC#Cc2ccc(Cl)cc2Cl)c1)C(=O)O (stereo not drawn) [Ex 100, 2-Isopropoxy-3-(3-[3-(2,4-dichlorophenyl)-2-propynyl]oxyphenyl)propanoic acid]
inhibition in vivo at 6 mg/kg [1]: 60.7% | inhibition in vivo at 6 mg/kg [2]: 65.1% | inhibition in vivo at 6 mg/kg [3]: 79.3%

CC(C)O[C@@H](Cc1cccc(CNC(=O)OCc2cccc(OC(F)(F)F)c2)c1)C(=O)O [Ex 344, 3-(3-{[3-Trifluoromethoxybenzyloxycarbonylamino]methyl}phenyl)-2(S)-isopropoxypropanoic acid]
inhibition in vivo at 3 mg/kg [1]: 58.1% | inhibition in vivo at 3 mg/kg [2]: 45.8% | inhibition in vivo at 3 mg/kg [3]: 61.8%
